Data from patent US11884710B2, “Peptide compounds and methods of use in wound healing” (priority 2013, dated 2024).

Legend:
Format in all cases: in vivo
[1] = tested on: full thickness excisional wounds; test: Histopathology of swine dermal wounds; design: Inflammation, mean histopathology score / Angiogenesis, mean histopathology score / Granulation, mean histopathology score / Epithelization, mean histopathology score: scale not given here; conditions: for epidermal resurfacing and maturation vs saline control, in words: day 14 post-wounding; for Angiogenesis, mean histopathology score / Epithelization, mean histopathology score / Granulation, mean histopathology score / Inflammation, mean histopathology score: wounds harvested on day 14, 3 mg/ml
Description: The characteristics that were measured are required to indicate features of a well-healed wound. Inflammation should be low and re-epithelialization high.
(§1) Full thickness excisional wounds were induced on the dorsum of swine (N=3) using a 1.0 cm biopsy punch. Treatments were administered (0.20 ml) to each wound (N=6 wounds per group), and the wounds were dressed with standard occlusive dressing ([…]™, 3M Corporation, St. Paul, Minn.). Treatments were reapplied daily and dressings changed. Clinical wound healing observations and wound area (2 mm) measurements were performed on days 0, 3, 5, 7, 10, and 14 post-wounding. Wound area (2 mm) data were expressed as percentage (%) of wound healing. Animals were terminated on day 14 with wounds harvested and processed for histological evaluation. […] All peptide formulation treatment groups healed faster with greater rate of closure and re-epithelialization over time, as compared to the saline control (Group A).
The histology correlated with the clinical observations. […] There were minimal differences in the amount or character of granulation tissue, inflammation, and angiogenesis. All the wounds were well filled and vascularized.

[2] = tested on: full thickness excisional wounds; test: Swine full thickness excisional dermal wound model; conditions: for Mean Wound Healing (%): topical 3 mg/ml, 0.20 ml daily; for percentage of wound healing vs saline control, in words: 3 mg/ml
Description: In this Example, peptide compounds of the presently disclosed inventive concepts were evaluated as to their activity on the dermal wound healing process in a clinically relevant swine full thickness excisional wound model. Three different peptide formulations (Group B, Peptide 95-122 (SEQ ID NO:26); Group C, Peptide 120-146WH (SEQ ID NO:31); and Group D, Peptide 120-146QH-5RMP (SEQ ID NO:33)) were each evaluated at the same concentration (3 mg/ml). Sterile saline served as the control (Group A).
as §1

[3] = tested on: P. aeruginosa (ATCC 27853); test: Mouse model of Pseudomonas (bacterial) keratitis; conditions: 48 hours post-infection
Description: A circular wound was created on the mouse cornea by removing the epithelium and infected with 10^5 colony forming units (CFU) of P. aeruginosa (ATCC® 27853™ (American Type Culture Collection, Manassas, Va.)). Infected wounds were treated with saline (0.9% sodium chloride, vehicle control) or saline containing indicated concentrations of peptide every 15 minutes for 2 hours, then every 30 minutes for 3 hours on the first day. Infected wounds were treated twice on the second day and once on the third day. Mice were killed at 48 hours post-infection, and CFU/eye were quantified. The means were plotted and are representative of 5 to 9 mice per group. Mann Whitney test was performed for each group as compared to the saline control group. *P=0.014. In compound names such as BCC02-5RMP used herein, “R” represents arginine, and “MP” represents a small PEG molecule as defined elsewhere herein (such as, for example but not by way of limitation, “AEEP”).
(§2) A circular wound was created on the mouse cornea by removing the epithelium, and the wound was infected with 10^5 CFU of P. aeruginosa (ATCC® 27853™ (American Type Culture Collection, Manassas, Va.)). Infected wounds were treated with saline or saline containing indicated concentrations (2, 5, 10, and 20 mg/ml) of peptide every 30 minutes for 6 hours on the first day. Infected wounds were treated twice on the second day and once on the third day. Mice were killed at 48 hours post-infection, and the CFU/eye were quantified. The means are plotted and are representative of 5 mice per group. Mann Whitney test was performed for each group as compared to the saline control group. *P=0.015 and **P=0.097.
as §2, with “representative of 4 to 5 mice” for “representative of 5 mice”, “control group.” for “control group. *P=0.015 and **P=0.097.”
as §2, with “group. **P=0.0079 by” for “group.”, “test” for “test was performed for each group”, “group.” for “group. *P=0.015 and **P=0.097.”
A circular wound (2 mm) was created on the mouse cornea by removing the epithelium and infecting the wound with 10^5 CFU of P. aeruginosa (ATCC® 27853™ (American Type Culture Collection, Manassas, Va.)). Infected wounds were treated with saline or saline containing indicated concentrations of peptide every 15 minutes for 2 hours, then every 30 minutes for 3 hours on the first day. […] Mice were killed at 48 hours post-infection, and the colony forming units per eye (CFU/eye) were quantified. […]

In the case of “GTRCQVAGWGSWHSGGRLSRFPRFVNV (derivative of peptide of CAP37 protein) [Peptide 120-146WH]”, the “epidermal resurfacing and maturation vs saline control, in words” value [1] is reported as “greater extent of epidermal resurfacing and maturation of the epidermis”, the “Angiogenesis, mean histopathology score” value [1] is reported as 1.7 and the “Epithelization, mean histopathology score” value [1] is reported as 3.7. For the same sequence, the “Granulation, mean histopathology score” value [1] was 4.0, the “Inflammation, mean histopathology score” value [1] was 0.5 and the “Mean Wound Healing (%)” value ([2]; Day 0) was 0.0%. For the same sequence, the “Mean Wound Healing (%)” value ([2]; Day 3) was 22.1%, the “Mean Wound Healing (%)” value ([2]; Day 5) was 35.9% and the “Mean Wound Healing (%)” value ([2]; Day 7) was 59.7%. The “Mean Wound Healing (%)” value ([2]; Day 10) was 93.5%, the “Mean Wound Healing (%)” value ([2]; Day 14) was 97.5% and the “percentage of wound healing vs saline control, in words” value ([2]; days 10 and 14 post-wounding) was “significant (p<0.05) increase in the percentage of wound healing”. The “CFU/eye vs saline, in words” value ([3]; topical doses of 10 and 20 mg/ml) was “significantly reduced the CFU/eye”.

In the case of “GTRCQVAGWGSWRSGGRLSRFPRFVNV (derivative of peptide of Homo sapiens CAP37 protein) [Peptide 120-146WR]”, the “infection (CFU/eye) vs saline, in words” value ([3]; topical 5, 10, and 20 mg/ml) is reported as “significantly reduced infection”.

For “LDREANLTSSVTILPLPLQNATVEAGTR (listed as Homo sapiens) [Peptide 95-122]”, the “epidermal resurfacing and maturation vs saline control, in words” value [1] was “greater extent of epidermal resurfacing and maturation of the epidermis”, the “Angiogenesis, mean histopathology score” value [1] was 2.3 and the “Epithelization, mean histopathology score” value [1] was 4.0. For the same sequence, the “Granulation, mean histopathology score” value [1] was 4.0, the “Inflammation, mean histopathology score” value [1] was 0.5 and the “Mean Wound Healing (%)” value ([2]; Day 0) was 0.0%. The “Mean Wound Healing (%)” value ([2]; Day 3) was 28.9%, the “Mean Wound Healing (%)” value ([2]; Day 5) was 41.5% and the “Mean Wound Healing (%)” value ([2]; Day 7) was 70.8%. The “Mean Wound Healing (%)” value ([2]; Day 10) was 99.7%, the “Mean Wound Healing (%)” value ([2]; Day 14) was 100.0% and the “percentage of wound healing vs saline control, in words” value ([2]; days 5, 7, 10, and 14) was “significant (p<0.05) increase in the percentage of wound healing”.
